Reference: patent US20110081296A1, “SYSTEMS AND METHODS FOR IDENTIFICATION OF CILIOPATHY THERAPEUTICS” (RUTGERS, THE STATE UNIVERSITY OF NEW JERSEY, priority 2009, published 2011)

Columns and labels:
Assay type in all cases: cell-based, Caenorhabditis elegans
WT sperm = test: in vitro sperm crawling on glass slides after chemical activation, wild type; conditions: n=7
Procedure: (§1) Epifluorescence and Nomarski analyses were performed on a Zeiss Axioplan2 imaging system equipped with 10×, 63× (NA 1.4), 100× (NA 1.4) objectives and a Photometrics Cascade 512B CCD camera using Metamorph software. 3D deconvolution of Z-stacks of epifluorescent image were performed by AutoQuantX program (MediaCybernetics). Confocal images were collected using a 510 LSM META ZEISS. Optical sections were collected between 0.4-1.0 μm and projected as Z-series that were stored as TIFF files and manipulated using Adobe PhotoShopTM. Worms were anesthetized with 1 mM levamisole, mounted on agar pads and maintained at room temperature. For time-lapse microscopy of sperm motility, Nomarski images were taken every 15 seconds for up to 15 minutes. Neuronal images shown in figures are projected epifluorescent Z-stacks af[…] deconvolution except for FIGS. 2C and 2G, which are projected Z-stacks of confocal sections. For electron microscopy, sperm were prepared as known in the art, except that the samples were embedded in LX112 (Ladd Research Industries Inc., Burlington, Va.). To isolate spermatids, virgin L4 males were isolated for 2-3 days in 20 degrees and cut with a 25g needle on a glass slide in Sperm Media (SM) pH 7.9 with 10 mM Dextrose. For in vitro activation, 20 ug/ml of Pronase or 100 nM monensin (for in vitro sperm crawling experiments) was added to SM as described in [21]. […]

my15 sperm = test: in vitro sperm crawling on glass slides after chemical activation, cil-1(my15) mutant; conditions: isolated my15 sperm
Procedure: as §1

my15 spermatids = test: in vitro sperm activation of isolated male spermatids, cil-1(my15) mutant; conditions: 100 nM
Procedure: (§2) To isolate spermatids, virgin L4 males were isolated for 2-3 days in 20 degrees and cut with a 25g needle on a glass slide in Sperm Media (SM) pH 7.9 with 10 mM Dextrose. For in vitro activation, 20 ug/ml of Pronase or 100 nM monensin (for in vitro sperm crawling experiments) was added to SM as described in [21]. For wortmannin treatment, a 100× wortmannin stock solution in DMSO was added to reach the final concentration of 100 nM into SM. During sperm activation, a round spermatid develops into a motile spermatozoon with a pseudopod (FIG. 16A). This process can be mimicked in vitro by chemical activators such as the ionophore monensin or Pronase. Within 15 min of Pronase application, the majority of WT male spermatids (63.4%, n=347) extend pseudopods (FIGS. 16B and 16B′), and the average length of spermatozoa is 8.13±1.11 μm (±standard deviation [SD], n=95) (FIG. 16B′). […] The diameter of my15 spermatids is also slightly smaller (6.22±0.54 μm, n=136) than WT (6.73±0.65 μm, n=110, p=8.08E-07). In vivo sperm activation defects were observed also in my15 hermaphrodites. […] Thus, cil-1 positively regulates sperm activation in vitro and in vivo. […] To this end, 1 nM, 10 nM, and 100 nM wortmannin, a pharmacological inhibitor of PI 3-kinases that produce PI(3,4,5)P3 from PI(4,5)P2 [27], were applied to WT and my15 spermatids.

WT spermatids = test: in vitro sperm activation of isolated male spermatids, wild type; conditions: of 1, 10, 100 nM tested
Procedure: as §2

Structure (SMILES)	sperm crawl rate (WT sperm)	sperm motility (my15 sperm)	activation of male-derived sperm (my15 spermatids)	most effective concentration for in vitro activation (WT spermatids)
CC[C@@]1([C@@H]2O[C@@H]([C@H]3O[C@@](O)(CO)[C@H](C)C[C@@H]3C)C[C@@H]2C)CC[C@H]([C@]2(C)CC[C@]3(C[C@H](O)[C@@H](C)[C@@H]([C@@H](C)[C@@H](OC)[C@H](C)C(=O)O)O3)O2)O1 [monensin]	0.33±0.04 μm/s	immotile		
COC[C@H]1OC(=O)c2coc3c2[C@@]1(C)C1=C(C3=O)[C@@H]2CCC(=O)[C@@]2(C)C[C@H]1OC(C)=O [wortmannin]			not activated	100 nM
